Values of other authors as cited in paper PMC7904743, “WIDOCK: a reactive docking protocol for virtual screening of covalent inhibitors” (Journal of Computer-Aided Molecular Design, 2021).
Read-outs that look alike come from different tables or passages of the source.

Assays:
NUDT7 = conditions: protein labeling at 200 μM; experimental actives if % labeling higher than 50%; cited from earlier work
[1] = thiol reactivity, cited from earlier work
OTUB2 = conditions: experimental actives if % labeling higher than 50%, cited from earlier work
[2] = natural log of average kinetic rate constant
[3] = natural log of average rate constant
[4] = natural log of average rate constant k
[5] = natural logarithm of average rate constant

Row | SMILES | NUDT7 % labeling (NUDT7) | ln(avg k) [1, 2] | ln(avg k) [1, 3] | OTUB2 % labeling (OTUB2; OTUB2 protein labeling) | ln(avg k) [1, 4] | ln(avg k) [1, 5] | OTUB2 % labeling (OTUB2)
1 | O=C(CCl)N1CCOC2CCCCC21 (stereo not shown) [PCM-0102940, O=C(CCl)N1CCOC2CCCCC21] | 0% | -15.696 | -15.696 | 0% |  |  | 
2 | O=C(CCl)N1CCCC1c1ccc2c(c1)OCCCO2 (stereo not shown) [PCM-0102512, O=C(CCl)N1CCCC1c1ccc2c(c1)OCCCO2] | 88% |  |  |  | -15.497 | -15.497 | 0%
3 | CN(C)S(=O)(=O)c1ccc2c(c1)CCCN2C(=O)CCl [PCM-0102285, CN(C)S(=O)(=O)c1ccc2c(c1)CCCN2C(=O)CCl] | 0% |  |  |  | -15.789 | -15.789 | 0%
4 | O=C(CCl)Nc1cccc2ccccc12 [PCM-0102396, O=C(CCl)Nc1cccc2ccccc12] | 12% |  |  |  | -16.060 | -16.060 | 54%
5 | CC(C)N(CC(F)(F)F)C(=O)CCl [PCM-0102516, CC(C)N(CC(F)(F)F)C(=O)CCl] | 0% |  |  |  | -17.383 | -17.383 | 0%
6 | Cc1ccccc1C(C)NC(=O)CCl (stereo not shown) [PCM-0102390, Cc1ccccc1C(C)NC(=O)CCl] | 10% |  |  |  | -16.582 | -16.582 | 26%
7 | O=C(CCl)N1CCOCC1 [PCM-0102749, O=C(CCl)N1CCOCC1] | 0% | -17.466 | -17.466 | 0% |  |  | 
8 | CC(C)C(=O)NNC(=O)CCl [PCM-0103014, CC(C)C(=O)NNC(=O)CCl] | 0% | -17.522 | -17.522 | 9% |  |  | 
9 | CC(C)C(C)(C#N)NC(=O)CCl (stereo not shown) [PCM-0102626, CC(C)C(C)(C#N)NC(=O)CCl] | 0% |  |  |  | -15.951 | -15.951 | 0%
10 | CC12CCC(CC1=NNC(=O)CCl)C2(C)C (stereo not shown) [PCM-0102498, CC12CCC(CC1=NNC(=O)CCl)C2(C)C] | 0% |  |  |  | -15.811 | -15.811 | 0%
11 | O=C(CCl)Nc1ccc(Cl)c(Cl)c1 [PCM-0102112, O=C(CCl)Nc1ccc(Cl)c(Cl)c1] | 18% |  |  |  | -15.433 | -15.433 | 30%
12 | CCc1nc(NC(=O)CCl)sc1C [PCM-0102231, CCc1nc(NC(=O)CCl)sc1C] | 33% |  |  |  | -15.238 | -15.238 | 0%
13 | O=C(CCl)N1CCN(Cc2ccc3c(c2)CCO3)CC1 [PCM-0102814, O=C(CCl)N1CCN(Cc2ccc3c(c2)CCO3)CC1] | 0% | -15.537 | -15.537 | 0% |  |  | 
14 | N#CCN(C(=O)CCl)c1ccccc1 [PCM-0102471, N#CCN(C(=O)CCl)c1ccccc1] | 0% |  |  |  | -15.586 | -15.586 | 19%
15 | CC1CCC(NC(=O)CCl)CC1 (stereo not shown) [PCM-0102913, CC1CCC(NC(=O)CCl)CC1] | 0% | -16.529 | -16.529 | 8% |  |  | 
16 | O=C(CCl)Nc1ccc(F)cc1 [PCM-0103002, O=C(CCl)Nc1ccc(F)cc1] | 0% | -16.182 | -16.182 | 30% |  |  | 
17 | O=C(CCl)NC1(c2ccccc2)CCC1 [PCM-0102935, O=C(CCl)NC1(c2ccccc2)CCC1] | 29% | -16.140 | -16.140 | 0% |  |  | 
18 | CC(C)(C)c1cc(NC(=O)CCl)on1 [PCM-0102348, CC(C)(C)c1cc(NC(=O)CCl)on1] | 0% |  |  |  | -15.607 | -15.607 | 0%
19 | O=C(CCl)NC1(c2ccc3c(c2)OCCO3)CCCC1 [PCM-0102951, O=C(CCl)NC1(c2ccc3c(c2)OCCO3)CCCC1] | 100% | -16.488 | -16.488 | 0% |  |  | 
20 | CN(CC1CC1)C(=O)CCl [PCM-0102714, CN(CC1CC1)C(=O)CCl] | 0% |  | -16.302 |  |  | -16.302 | 0%
21 | COc1cccc(C2CCCN2C(=O)CCl)c1 (stereo not shown) [PCM-0102716, COc1cccc(C2CCCN2C(=O)CCl)c1] | 68% |  | -15.631 |  |  | -15.631 | 9%
22 | Cc1ccccc1NC(=O)CCl [PCM-0102887, Cc1ccccc1NC(=O)CCl] | 0% | -16.445 | -16.445 | 0% |  |  | 

Row | SMILES | NUDT7 % labeling (NUDT7) | ln(avg k) [1, 2] | ln(avg k) [1, 3] | OTUB2 % labeling (OTUB2; OTUB2 protein labeling) | ln(avg k) [1, 4] | ln(avg k) [1, 5] | OTUB2 % labeling (OTUB2)
23 | CC(=O)Nc1ccc(NC(=O)CCl)cc1 [PCM-0102114, CC(=O)Nc1ccc(NC(=O)CCl)cc1] | 0% |  |  |  | -16.157 | -16.157 | 0%
24 | CCN(C(=O)CCl)C1CCS(=O)(=O)C1 (stereo not shown) [PCM-0102105, CCN(C(=O)CCl)C1CCS(=O)(=O)C1] | 0% |  |  |  | -15.384 | -15.384 | 0%
25 | Cc1cc(C)c(NC(=O)CCl)c(C)c1 [PCM-0102352, Cc1cc(C)c(NC(=O)CCl)c(C)c1] | 0% |  |  |  | -17.111 | -17.111 | 0%
26 | CCC1CCCCN1C(=O)CCl (stereo not shown) [PCM-0102828, CCC1CCCCN1C(=O)CCl] | 4% | -16.282 | -16.282 | 0% |  |  | 
27 | COC(=O)C1(NC(=O)CCl)CCC(C)CC1 (stereo not shown) [PCM-0102827, COC(=O)C1(NC(=O)CCl)CCC(C)CC1] | 0% | -16.743 | -16.743 | 0% |  |  | 
28 | O=C(CCl)N1CCC(C(=O)N2CCCCCC2)CC1 [PCM-0102781, O=C(CCl)N1CCC(C(=O)N2CCCCCC2)CC1] | 0% | -15.500 | -15.500 | 0% |  |  | 
29 | Cc1cc(NC(=O)CCl)n(-c2ccc(F)cc2)n1 [PCM-0102665, Cc1cc(NC(=O)CCl)n(-c2ccc(F)cc2)n1] | 0% |  |  |  | -15.905 | -15.905 | 53%
30 | CC(c1ccc(F)cc1)N(C)C(=O)CCl (stereo not shown) [PCM-0102783, CC(c1ccc(F)cc1)N(C)C(=O)CCl] | 19% | -16.224 | -16.224 | 0% |  |  | 
31 | O=C(CCl)Nc1cc(Cl)ccc1Cl [PCM-0102288, O=C(CCl)Nc1cc(Cl)ccc1Cl] | 6% |  |  |  | -16.095 | -16.095 | 0%
32 | Cc1c(C#N)c(NC(=O)CCl)n(-c2cccc(F)c2)c1C [PCM-0102146, Cc1c(C#N)c(NC(=O)CCl)n(-c2cccc(F)c2)c1C] | 58% |  |  |  | -15.589 | -15.589 | 10%
33 | O=C(CCl)Nc1ccc(F)c(Cl)c1 [PCM-0102217, O=C(CCl)Nc1ccc(F)c(Cl)c1] | 0% |  |  |  | -15.473 | -15.473 | 14%
34 | COc1cccc(NC(=O)CCl)c1 [PCM-0102410, COc1cccc(NC(=O)CCl)c1] | 0% |  |  |  | -15.888 | -15.888 | 0%
35 | CS(=O)(=O)c1ccc(Cl)c(NC(=O)CCl)c1 [PCM-0102220, CS(=O)(=O)c1ccc(Cl)c(NC(=O)CCl)c1] | 5% |  |  |  | -15.663 | -15.663 | 0%
36 | CC(c1ccccc1)N1CCN(C(=O)CCl)CC1 (stereo not shown) [PCM-0102710, CC(c1ccccc1)N1CCN(C(=O)CCl)CC1] | 0% |  | -15.723 |  |  | -15.723 | 12%
37 | COC(=O)c1ccc(C)c(NC(=O)CCl)c1 [PCM-0103027, COC(=O)c1ccc(C)c(NC(=O)CCl)c1] | 5% | -16.113 | -16.113 | 0% |  |  | 
38 | CC1CCCC(NC(=O)CCl)C1C (stereo not shown) [PCM-0102663, CC1CCCC(NC(=O)CCl)C1C] | 0% |  |  |  | -16.862 | -16.862 | 29%
39 | CC(=O)N1CCN(C(=O)CCl)CC1 [PCM-0102535, CC(=O)N1CCN(C(=O)CCl)CC1] | 6% |  |  |  | -15.085 | -15.085 | 0%
40 | CC(NC(=O)CCl)c1cc2ccccc2o1 (stereo not shown) [PCM-0102117, CC(NC(=O)CCl)c1cc2ccccc2o1] | 12% |  |  |  | -16.443 | -16.443 | 41%
41 | O=C(CCl)Nc1ccc(Br)cc1 [PCM-0102992, O=C(CCl)Nc1ccc(Br)cc1] | 11% | -15.800 | -15.800 | 8% |  |  | 
42 | O=C(Nc1ccccc1)C1CCN(C(=O)CCl)CC1 [PCM-0102219, O=C(Nc1ccccc1)C1CCN(C(=O)CCl)CC1] | 0% |  |  |  | -15.089 | -15.089 | 0%
43 | O=C(CCl)N1CCN(C(=O)C2COc3ccccc3O2)CC1 (stereo not shown) [PCM-0102996, O=C(CCl)N1CCN(C(=O)C2COc3ccccc3O2)CC1] | 0% | -15.549 | -15.549 | 13% |  |  | 
